These results are taken from ChEMBL document CHEMBL3392926, “Antiprotozoal Activity Profiling of Approved Drugs: A Starting Point toward Drug Repositioning”.

Values joined by “and” are separate entries in the source; they are usually repeats but may differ in a detail not shown here. Identical values can stand only once.

Assay [1] concerns Leishmania donovani. The assay is described as follows: microbe, parasite or virus in culture. Type of assay: functional, organism-based, MHOM/ET/67/L82.
Description: DNDI: Leish (axenic) in Vitro, 72 hour
In assay [2] the test system is Leishmania donovani. The assay is described as follows: microbe, parasite or virus in culture. Type of assay: functional, organism-based, MHOM/ET/67/L82. The source holds these as a separate data set.
Description: DNDI: Leish (macro) in Vitro, 96 hour
The test system of a further assay is Plasmodium falciparum. The assay is described as follows: microbe, parasite or virus in culture. Type of assay: functional, organism-based, K1.
A short description of assay [3]: DNDI: Cytotoxicity in Vitro, 96 hour, in primary peritoneal mouse macrophages. Type of assay: functional, cell-based. The conditions noted are these: Macrophage.
Assay [4] relates to Trypanosoma brucei rhodesiense. Description: microbe, parasite or virus in culture. As to conditions: Trypanosoma brucei, STIB 900, 72 h. In kind it is functional, organism-based, STIB 900.
Description: DNDI: HAT in Vitro, 72 hour
The nature of assay [5]: cells. As to conditions: Rattus norvegicus, L6, 72 h. In kind it is functional, cell-based.
Description: DNDI: Cytotoxicity in Vitro, 72 hour, in rat skeletal myoblast cells
The nature of assay [6]: cells. As to conditions: Mus musculus, NMRI, BalbC or CD1 mice, Macrophage, 96 h. Type of assay: functional, cell-based.
Description: DNDI: Cytotoxicity in Vitro, 96 hour, in mouse macrophages (infected-amastigotes)
In another assay the test system is Trypanosoma cruzi. The assay is described as follows: microbe, parasite or virus in culture. In kind it is functional, organism-based, Tulahuen C4 (LacZ). As to conditions: Trypanosoma cruzi, Tulahuen C4 (LacZ), 96 h.
[7] abbreviates: Leishmania donovani, MHOM/ET/67/L82, 96 h.
Setting [8] is: Plasmodium falciparum, K1, 72 h.
The mark [9] stands for this setting: Leishmania donovani, MHOM/ET/67/L82, 72 h.

Description for Plasmodium falciparum: DNDI: Malaria in Vitro, 72 hour
Description for Trypanosoma cruzi: DNDI: Chagas in Vitro, 96 hour

For orientation: IC50 means the midpoint of a concentration-inhibition curve. A low value points to greater potency. For the compound `Clc1ccc(C(Cn2ccnc2)OCc2ccsc2Cl)c(Cl)c1` (stereo unspecified) [TIOCONAZOLE], the IC50 is 22.4 µM and 9.26 µM with Leishmania donovani [1]; 13.1 µM with Leishmania donovani [2]; above 7.74 µM in the assay with Leishmania donovani [2] (setting [7]); 0.63 µM with Plasmodium falciparum; 1.07 µM in the assay on Plasmodium falciparum (setting [8]); 51.1 µM in assay [3].

As for `Cc1cc(C2CCCCC2)n(O)c(=O)c1` [CICLOPIROX OLAMINE], the IC50 is 1.64 µM with Leishmania donovani [1] (setting [9]); 0.8 µM in assay [4]; 9.09 µM with Leishmania donovani [2] (setting [7]); 1.04 µM in the assay “cells [5]”; 3.75 µM in the assay with Plasmodium falciparum (setting [8]); above 11.2 µM in “cells [6]”. The figures for the concentration for half-maximal inhibition (IC50) (in assay [3]; in the assay with Trypanosoma cruzi) were 20.3 µM and 2.49 µM, respectively.

Regarding `N=C(N)c1ccc(OCCCCCOc2ccc(C(=N)N)cc2)cc1` [PENTAMIDINE], the IC50 in the assay on Leishmania donovani [1] (setting [9]) is 19.8 µM; in assay [4] it was 0.01 µM; in the assay “cells [5]”, 8.87 µM; in the assay “cells [6]” it was above 29.4 µM; in assay [3] it was 7.78 µM; in the assay on Trypanosoma cruzi it was 4.44 µM.

Turning to `C[C@@H]1[C@H](O)[C@@H](C)/C=C/C=C/C=C/C=C/C=C/C=C/C=C/[C@H](O[C@@H]2O[C@H](O)[C@@H](O)[C@H](N)[C@@H]2O)C[C@@H]2O[C@](O)(C[C@@H](O)C[C@@H](O)[C@H](O)CC[C@@H](O)C[C@@H](O)CC(=O)O[C@H]1C)C[C@H](O)[C@H]2C(=O)O`, the IC50 worked out at 0.34 µM in the assay with Leishmania donovani [1] (setting [9]); 0.76 µM in assay [4]; 0.31 µM in the assay with Leishmania donovani [2] (setting [7]); 10.3 µM in “cells [5]”; 0.8 µM in the assay with Plasmodium falciparum (setting [8]); 32.4 µM in the assay “cells [6]”. Besides, the concentration for half-maximal inhibition (IC50) in assay [3] turned out to be 22.4 µM; in the assay on Trypanosoma cruzi it was 56.7 µM.

With `CCN(CC)CCCCCCNc1cc(OC)cc2c(C)ccnc12` [SITAMAQUINE], the IC50 was 13.7 µM with Leishmania donovani [1] (setting [9]); 7.39 µM in assay [4]; 19.5 µM in the assay on Leishmania donovani [2] (setting [7]); 32.3 µM in the assay “cells [5]”; 0.08 µM in the assay with Plasmodium falciparum (setting [8]); above 29.1 µM in “cells [6]”. Also, the values for the IC50 (in assay [3]; with Trypanosoma cruzi) were 21.4 µM and 22 µM, respectively.

For `CC1CS(=O)(=O)CCC1/N=N/c1ccc([N+](=O)[O-])o1` (stereo unspecified), the half-maximal inhibitory concentration (IC50) was 2.76 µM with Leishmania donovani [1] (setting [9]); 1.44 µM in assay [4]; 20.7 µM in the assay on Leishmania donovani [2] (setting [7]); 87 µM in “cells [5]”; above 34.8 µM in the assay “cells [6]”; 15.7 µM in assay [3]. The same compound displayed an IC50 in the assay with Trypanosoma cruzi of 0.19 µM.

As to `CC(C)/N=c1\cc2n(-c3ccc(Cl)cc3)c3ccccc3nc-2cc1Nc1ccc(Cl)cc1` [CLOFAZIMINE], the IC50 in the assay on Leishmania donovani [1] (setting [9]) is 22.4 µM; in assay [4] it was 7.63 µM; in the assay with Leishmania donovani [2] (setting [7]), 0.95 µM; in “cells [5]”, 9.97 µM; in the assay with Plasmodium falciparum (setting [8]), 4.1 µM; in the assay “cells [6]”, 6.34 µM. Further, the IC50 turned out to be 10.7 µM in assay [3] and 38.2 µM in the assay on Trypanosoma cruzi.

For the compound `Clc1ccc(COC(Cn2ccnc2)c2ccc(Cl)cc2Cl)cc1` (stereo unspecified) [ECONAZOLE], the IC50 was 15.6 µM in “cells [5]”, 67.6 µM in “cells [6]” and 22.8 µM in assay [3].

Take `COc1cc(N[C@H](C)CCCN)c2ncccc2c1`: the IC50 in the assay on Leishmania donovani [1] (setting [9]) was 48.6 µM; in assay [4], 4.78 µM; with Leishmania donovani [2] (setting [7]), 28.2 µM; in “cells [5]”, 43.2 µM; in “cells [6]” it was above 38.6 µM; in assay [3] it was 39.7 µM. Further, in the assay on Trypanosoma cruzi, the IC50 stood at 17.9 µM.

Turning to `Clc1ccccc1C(c1ccccc1)(c1ccccc1)n1ccnc1` [CLOTRIMAZOLE], the IC50 in the assay “cells [5]” was 2.99 µM; in “cells [6]”, 87 µM; in assay [3], 32.5 µM.

Consider `Clc1ccc(COC(Cn2ccnc2)c2ccc(Cl)cc2Cl)c(Cl)c1` (stereo unspecified) [MICONAZOLE], for which the IC50 was determined as 15.4 µM in the assay “cells [5]”, 62.7 µM in “cells [6]” and 23.9 µM in assay [3].

Consider `O=C(O)c1cn(C2CC2)c2cc(N3CCNCC3)c(F)cc2c1=O` [CIPROFLOXACIN], for which the IC50 in the assay with Leishmania donovani [1] (setting [9]) is above 302 µM; in assay [4], 35.9 µM; with Leishmania donovani [2] (setting [7]) it was above 90.5 µM; in the assay “cells [5]” it was 118 µM; with Plasmodium falciparum (setting [8]), 13.2 µM; in “cells [6]”, above 90.5 µM. For the same compound, in the assay on Trypanosoma cruzi, the IC50 stood at 92 µM.

In the case of `CO[C@H]1/C=C/O[C@@]2(C)Oc3c(C)c(O)c4c(c3C2=O)C2=NC3(CCN(CC(C)C)CC3)NC2=C(NC(=O)/C(C)=C\C=C\[C@H](C)[C@H](O)[C@@H](C)[C@@H](O)[C@H](C)[C@H](OC(C)=O)[C@H]1C)C4=O`, the IC50 was 56.4 µM with Leishmania donovani [1] (setting [9]); 12.6 µM in assay [4]; above 35.4 µM with Leishmania donovani [2] (setting [7]); 60.9 µM in “cells [5]”; 1.59 µM in the assay with Plasmodium falciparum (setting [8]); above 35.4 µM in “cells [6]”. Also, the IC50 in the assay with Trypanosoma cruzi was determined as 27.5 µM.
